Measurements published in PMC11212140, “Molecular Bidents with Two Electrophilic Warheads as a New Pharmacological Modality” (ACS Central Science, 2024).

Experiments:
[1] = test system: CDK11, CDK8; experiment: KiNativ profiling in H3255 cells; format: cell-based, human; settings: 2.5 µM; Lys2; DLKPANILVMGEGPER
[2] = test system: T1, ACK; experiment: KiNativ profiling in H3255 cells; format: cell-based, human; settings: 2.5 µM
T1 construct: purchased ActivX Biosciences (KiNativ)
Procedure: (§1) H3255 cells were plated with 6.5x10^6 per condition in fresh media in 15 cm plates and treated the 80% confluency for 2 hours with DMSO or 2.5 μM of ZNL-0056. To harvest cells, plates were washed 3 times with cold PBS, then collected by scraping into 4 mL of cold PBS containing protease and phosphatase inhibitors. Cells were pelleted by centrifugation at 1350 g at 4 ℃ for 5 minutes and immediately frozen in liquid nitrogen. The frozen samples were sent to ActivX Biosciences (La Jolla, CA) for the remainder of the KiNativ profiling experiment4. […]

[3] = test system: T2, Erk1; experiment: KiNativ profiling in H3255 cells; format: cell-based, human; settings: 2.5 µM; Lys2; DLKPSNLLINTTCDLK
T2 construct: purchased ActivX Biosciences (KiNativ)
Procedure: as §1

[4] = test system: IKKe, TBK1; experiment: KiNativ profiling in H3255 cells; format: cell-based, human; settings: 2.5 µM; Lys2; DIKPGNIMR
Procedure: as §1

[5] = test system: T3, ULK1; experiment: KiNativ profiling in H3255 cells; format: cell-based, human; settings: 2.5 µM; Lys2; DLKPQNILLSNPAGR
T3 construct: purchased ActivX Biosciences (KiNativ)
Procedure: as §1

[6] = test system: T4, JAK1 domain2; experiment: KiNativ profiling in H3255 cells; format: cell-based, human; settings: 2.5 µM
T4 construct: JAK1 domain2; purchased ActivX Biosciences (KiNativ)

[7] = test system: T5, LKB1; experiment: KiNativ profiling in H3255 cells; format: cell-based, human; settings: 2.5 µM; Lys2; DIKPGNLLLTTGGTLK
T5 construct: purchased ActivX Biosciences (KiNativ)

[8] = test system: T6, ATR; experiment: KiNativ profiling in H3255 cells; format: cell-based, human; settings: 2.5 µM; ATP; FYIMMCKPK
T6 construct: purchased ActivX Biosciences (KiNativ)
Procedure: (§2) Cellular target engagement assays […]
as §1

[9] = test system: T7, CDK10; experiment: KiNativ profiling in H3255 cells; format: cell-based, human; settings: 2.5 µM; Lys2; DLKVSNLLMTDK
T7 construct: purchased ActivX Biosciences (KiNativ)
Procedure: as §2, §1

[10] = test system: T8, CLK1; experiment: KiNativ profiling in H3255 cells; format: cell-based, human; settings: 2.5 µM; Lys2; LTHTDLKPENILFVQSDYTEAYNPK
T8 construct: purchased ActivX Biosciences (KiNativ)
Procedure: as §2, §1

[11] = test system: T9, DNAPK; experiment: KiNativ profiling in H3255 cells; format: cell-based, human; settings: 2.5 µM, ATP
T9 construct: purchased ActivX Biosciences (KiNativ)
Procedure: as §2, §1

[12] = test system: T10, MAP2K2; experiment: KiNativ profiling in H3255 cells; format: cell-based, human; settings: 2.5 µM; Lys2; HQIMHRDVKPSNILVNSR
T10 construct: purchased ActivX Biosciences (KiNativ)
Procedure: as §2, §1

[13] = test system: T11, MARK3; experiment: KiNativ profiling in H3255 cells; format: cell-based, human; settings: 2.5 µM; Lys1; EVAIKIIDKTQLNPTSLQK
T11 construct: purchased ActivX Biosciences (KiNativ)
Procedure: as §2, §1

[14] = test system: MSK1 domain1, MSK2 domain1; experiment: KiNativ profiling in H3255 cells; format: cell-based, human; settings: 2.5 µM; ATP Loop; VLGTGAYGKVFLVR
Procedure: as §2, §1

[15] = test system: MST3, MST4, YSK1; experiment: KiNativ profiling in H3255 cells; format: cell-based, human; settings: 2.5 µM; Activation Loop; LADFGVAGQLTDTQIKR
Procedure: as §2, §1

[16] = test system: T12, NuaK2; experiment: KiNativ profiling in H3255 cells; format: cell-based, human; settings: 2.5 µM; Lys1; LVAIKSIR
T12 construct: purchased ActivX Biosciences (KiNativ)
Procedure: as §2, §1

[17] = test system: T13, PAN3; experiment: KiNativ profiling in H3255 cells; format: cell-based, human; settings: 2.5 µM, ATP
T13 construct: purchased ActivX Biosciences (KiNativ)
Procedure: as §2, §1

[18] = test system: T14, PCTAIRE1; experiment: KiNativ profiling in H3255 cells; format: cell-based, human; settings: 2.5 µM; Lys1; SKLTDNLVALKEIR
T14 construct: purchased ActivX Biosciences (KiNativ)
Procedure: as §2, §1

[19] = test system: T15, PKD2; experiment: KiNativ profiling in H3255 cells; format: cell-based, human; settings: 2.5 µM; Lys1; DVAVKVIDK
T15 construct: purchased ActivX Biosciences (KiNativ)
Procedure: as §2, §1

[20] = test system: T16, RSK1 domain1; experiment: KiNativ profiling in H3255 cells; format: cell-based, human; settings: 2.5 µM
T16 construct: RSK1 domain1; purchased ActivX Biosciences (KiNativ)
Procedure: as §2, §1

[21] = test system: T17, SGK3; experiment: KiNativ profiling in H3255 cells; format: cell-based, human; settings: 2.5 µM; Lys1; FYAVKVLQK
T17 construct: purchased ActivX Biosciences (KiNativ)
Procedure: as §2, §1

[22] = test system: SRPK1, SRPK2; experiment: KiNativ profiling in H3255 cells; format: cell-based, human; settings: 2.5 µM; Lys1; FVAMKVVK
Procedure: as §2, §1

[23] = test system: TAO1, TAO3; experiment: KiNativ profiling in H3255 cells; format: cell-based, human; settings: 2.5 µM; Lys2; DIKAGNILLTEPGQVK
Procedure: as §2, §1

[24] = test system: T18, CDK2; experiment: KiNativ profiling in H3255 cells; format: cell-based, human; settings: 2.5 µM
T18 construct: purchased ActivX Biosciences (KiNativ)
Procedure: as §1
(§3) Human EGFR kinase domain (residues 696-1022) with T790M and V948R mutations was cloned with an N-terminal, protease cleavable His -GST tag. Recombinant protein was expressed in SF9 insect cells using baculovirus generated from the pFastBac system (Thermo Fisher) .
(§4) Briefly, cells at a density of ~2x10^6 cells/mL were infected with 1% (v/v) virus stock and grown for ~72 hours before harvesting and freezing the cell pellet . Infected cells were lysed in buffer A (50 mM Tris pH 8.0, 500 mM NaCl, 5% glycerol, 0.5 mM Tris(2-carboxyethyl)phosphine [TCEP]), ultracentrifuged at >200,000 rcf for 1 h, and the supernatant flo wed through Ni-NTA resin by gravity. The resin was washed with buffer A supplemented with 40 mM imidazole by […]

[25] = test system: FGFR1, FMS, PDGFRb, TYRO3; experiment: KiNativ profiling in H3255 cells; format: cell-based, human; settings: 2.5 µM; Lys1; VAVKMLK
Procedure: as §1, §3, §4

[26] = test system: T19, MET; experiment: KiNativ profiling in H3255 cells; format: cell-based, human; settings: 2.5 µM; Activation Loop; DMYDKEYYSVHNK
T19 construct: purchased ActivX Biosciences (KiNativ)
Procedure: as §1, §3, §4

[27] = Glutathione (GSH) reactivity; format: in vitro ADME; settings: glutathione (GSH) in buffer; read-out: half-life of conjugation with glutathione (GSH)
Procedure: Table S3. Glutathione (GSH) reactivity of ZNL-0056
*NGSH1440: the abbreviation of no glutathione. No glutathione is added into NGSH sample
(replaced by buffer) during the 24 hour-incubation R2 is the correlation coefficient of the linear
regression for the determination of kinetic constant.
(1 picture or pasted object on this page, not shown here)

[28] = Lys1, TVSVAVKCLKPDVLSQPEAMDDFIR
[29] = Activation Loop, IGDFGLTKAIETDKEYYTVK
[30] = Lys1, YDPEGDNTGEQVAVKSLKPESGGNHIADLKK
[31] = Activation Loop, LTDFGLSKEAIDHEKK

For C=CC(=O)Nc1cc(C(=O)Nc2nc3cccc(C)c3n2[C@@H]2CCCCN(C(=O)C=C)C2)cs1 [ZNL-0056], the Inhibition [1] was -0.339%, the Inhibition ([2]; Activation Loop, KVPFAWCAPESLK) was -21.4% and the Inhibition [2, 28] was -6.2%. For the same compound, the Inhibition [3] was -17.6%, the Inhibition [4] was 1.9% and the Inhibition [5] was 3.5%. It also gave an Inhibition [6, 29] of 4.7%, an Inhibition [6, 30] of 4.4% and an Inhibition [7] of 0.756%. The Inhibition [8] was 18.0%, the Inhibition [9] was 23.6% and the Inhibition [10] was -15.4%. It also gave an Inhibition ([11]; EHPFLVKGGEDLR) of 26.5%, an Inhibition ([11]; KGGSWIQEINVAEK) of -18.3% and an Inhibition [12] of 5.5%. The Inhibition [13] was 17.8%, the Inhibition [14] was 15.3% and the Inhibition [15] was 12.7%. The Inhibition [16] was 1.9%, the Inhibition ([17]; IQKSSNFGYITSCYK) was -8.7% and the Inhibition ([17]; VMDPTKILITGK) was 10.8%. The Inhibition [18] was -1.5%, the Inhibition [19] was 10.2% and the Inhibition [20, 31] was 5.8%. It also gave an Inhibition ([20]; Lys1, KVTRPDSGHLYAMKVLK) of -35.1%, an Inhibition [21] of 10.1% and an Inhibition [22] of -8.1%. For the same compound, the Inhibition [23] was -18.6%, the Inhibition ([24]; Lys1, LTGEVVALKK) was 0.6% and the Inhibition ([24]; Lys2, DLKPQNLLINTEGAIK) was 13.1%. The Inhibition [25] was -17.7%, the Inhibition [26] was -17.6% and the half-life [27] was 36 min.

Compound C=CC(=O)Nc1cc(Nc2nccc(-c3cn(C)c4ccccc34)n2)c(OC)cc1N(C)CCN(C)C [Osimertinib, osimertinib, reference compound] has an Inhibition [1] of 24.8%, an Inhibition ([2]; Activation Loop, KVPFAWCAPESLK) of 27.2% and an Inhibition [2, 28] of 25.7%. For the same compound, the Inhibition [3] was -0.641%, the Inhibition [4] was -9.4% and the Inhibition [5] was -9.0%. For the same compound, the Inhibition [6, 29] was -24.5%, the Inhibition [6, 30] was -22.2% and the Inhibition [7] was -3.9%. The Inhibition [8] was -16.2%, the Inhibition [9] was 40.2% and the Inhibition [10] was 21.2%. The Inhibition ([11]; EHPFLVKGGEDLR) was 29.9%, the Inhibition ([11]; KGGSWIQEINVAEK) was 7.8% and the Inhibition [12] was 12.1%. It also gave an Inhibition [13] of -26.0%, an Inhibition [14] of -40.8% and an Inhibition [15] of -4.8%. It also gave an Inhibition [16] of -2.3%, an Inhibition ([17]; IQKSSNFGYITSCYK) of 10.9% and an Inhibition ([17]; VMDPTKILITGK) of 3.7%. It also gave an Inhibition [18] of -20.8%, an Inhibition [19] of -2.1% and an Inhibition [20, 31] of -14.9%. It also gave an Inhibition ([20]; Lys1, KVTRPDSGHLYAMKVLK) of -11.7%, an Inhibition [21] of 2.9% and an Inhibition [22] of 21.8%. The Inhibition [23] was 6.6%, the Inhibition ([24]; Lys1, LTGEVVALKK) was 14.1% and the Inhibition ([24]; Lys2, DLKPQNLLINTEGAIK) was 9.6%. For the same compound, the Inhibition [25] was 0.6%, the Inhibition [26] was -2.3% and the half-life [27] was 49 min.
